Columns and labels:
Type in all cases: binding
[1] = molecular target: T1, LRRK2 (Leucine-rich repeat kinase 2) (Homo sapiens, UniProt Q5S007); assay: cryo-EM structure at […] Å; also ADP-Glo kinase inhibition (RCKWm)
T1 construct: full-length LRRK2

[2] = molecular target: T2, LRRK2 (Leucine-rich repeat kinase 2) (Homo sapiens, UniProt Q5S007, M1732R); assay: cryo-EM structure at […] Å; also ADP-Glo kinase inhibition
T2 construct: LRRK2^RCKWm (ROC-COR-KIN-WD40, without ARM-ANK-LRR domains)
T2 sequence (Q5S007 1327-2527 M1732R): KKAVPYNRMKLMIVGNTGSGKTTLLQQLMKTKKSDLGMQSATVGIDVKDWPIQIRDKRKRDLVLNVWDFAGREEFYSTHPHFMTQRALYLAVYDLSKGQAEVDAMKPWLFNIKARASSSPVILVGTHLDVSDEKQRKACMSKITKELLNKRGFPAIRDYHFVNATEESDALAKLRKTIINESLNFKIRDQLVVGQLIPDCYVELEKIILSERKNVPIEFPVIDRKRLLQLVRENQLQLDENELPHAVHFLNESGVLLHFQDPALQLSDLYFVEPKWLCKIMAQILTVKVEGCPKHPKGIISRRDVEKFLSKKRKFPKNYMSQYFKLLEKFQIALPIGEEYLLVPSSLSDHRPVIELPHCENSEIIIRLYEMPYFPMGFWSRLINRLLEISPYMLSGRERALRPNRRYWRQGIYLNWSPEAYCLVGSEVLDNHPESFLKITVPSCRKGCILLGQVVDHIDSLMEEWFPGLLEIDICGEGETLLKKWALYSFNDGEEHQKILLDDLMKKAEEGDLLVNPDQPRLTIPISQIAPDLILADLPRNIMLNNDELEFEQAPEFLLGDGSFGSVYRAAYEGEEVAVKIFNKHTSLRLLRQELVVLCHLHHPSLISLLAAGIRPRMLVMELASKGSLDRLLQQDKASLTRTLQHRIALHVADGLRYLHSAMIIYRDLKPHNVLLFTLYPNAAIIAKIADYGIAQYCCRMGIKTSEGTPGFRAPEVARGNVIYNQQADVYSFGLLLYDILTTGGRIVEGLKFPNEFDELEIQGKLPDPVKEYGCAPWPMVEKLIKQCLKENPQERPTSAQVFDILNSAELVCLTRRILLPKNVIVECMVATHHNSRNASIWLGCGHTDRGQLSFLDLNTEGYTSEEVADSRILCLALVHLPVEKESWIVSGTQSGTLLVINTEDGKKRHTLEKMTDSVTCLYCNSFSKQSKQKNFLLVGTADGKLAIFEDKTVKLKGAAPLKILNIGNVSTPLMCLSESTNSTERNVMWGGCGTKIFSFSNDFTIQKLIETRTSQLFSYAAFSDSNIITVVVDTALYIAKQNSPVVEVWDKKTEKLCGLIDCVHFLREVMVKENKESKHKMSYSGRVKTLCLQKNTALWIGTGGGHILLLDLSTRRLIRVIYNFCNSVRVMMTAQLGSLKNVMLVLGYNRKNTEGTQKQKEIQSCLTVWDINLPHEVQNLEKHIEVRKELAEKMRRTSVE

[3] = molecular target: T1, LRRK2 (Leucine-rich repeat kinase 2); assay: cryo-EM structure at […] Å; also ADP-Glo kinase inhibition (RCKWm); remark: listed apart in the source

T1 sequence (Q5S007 whole entry): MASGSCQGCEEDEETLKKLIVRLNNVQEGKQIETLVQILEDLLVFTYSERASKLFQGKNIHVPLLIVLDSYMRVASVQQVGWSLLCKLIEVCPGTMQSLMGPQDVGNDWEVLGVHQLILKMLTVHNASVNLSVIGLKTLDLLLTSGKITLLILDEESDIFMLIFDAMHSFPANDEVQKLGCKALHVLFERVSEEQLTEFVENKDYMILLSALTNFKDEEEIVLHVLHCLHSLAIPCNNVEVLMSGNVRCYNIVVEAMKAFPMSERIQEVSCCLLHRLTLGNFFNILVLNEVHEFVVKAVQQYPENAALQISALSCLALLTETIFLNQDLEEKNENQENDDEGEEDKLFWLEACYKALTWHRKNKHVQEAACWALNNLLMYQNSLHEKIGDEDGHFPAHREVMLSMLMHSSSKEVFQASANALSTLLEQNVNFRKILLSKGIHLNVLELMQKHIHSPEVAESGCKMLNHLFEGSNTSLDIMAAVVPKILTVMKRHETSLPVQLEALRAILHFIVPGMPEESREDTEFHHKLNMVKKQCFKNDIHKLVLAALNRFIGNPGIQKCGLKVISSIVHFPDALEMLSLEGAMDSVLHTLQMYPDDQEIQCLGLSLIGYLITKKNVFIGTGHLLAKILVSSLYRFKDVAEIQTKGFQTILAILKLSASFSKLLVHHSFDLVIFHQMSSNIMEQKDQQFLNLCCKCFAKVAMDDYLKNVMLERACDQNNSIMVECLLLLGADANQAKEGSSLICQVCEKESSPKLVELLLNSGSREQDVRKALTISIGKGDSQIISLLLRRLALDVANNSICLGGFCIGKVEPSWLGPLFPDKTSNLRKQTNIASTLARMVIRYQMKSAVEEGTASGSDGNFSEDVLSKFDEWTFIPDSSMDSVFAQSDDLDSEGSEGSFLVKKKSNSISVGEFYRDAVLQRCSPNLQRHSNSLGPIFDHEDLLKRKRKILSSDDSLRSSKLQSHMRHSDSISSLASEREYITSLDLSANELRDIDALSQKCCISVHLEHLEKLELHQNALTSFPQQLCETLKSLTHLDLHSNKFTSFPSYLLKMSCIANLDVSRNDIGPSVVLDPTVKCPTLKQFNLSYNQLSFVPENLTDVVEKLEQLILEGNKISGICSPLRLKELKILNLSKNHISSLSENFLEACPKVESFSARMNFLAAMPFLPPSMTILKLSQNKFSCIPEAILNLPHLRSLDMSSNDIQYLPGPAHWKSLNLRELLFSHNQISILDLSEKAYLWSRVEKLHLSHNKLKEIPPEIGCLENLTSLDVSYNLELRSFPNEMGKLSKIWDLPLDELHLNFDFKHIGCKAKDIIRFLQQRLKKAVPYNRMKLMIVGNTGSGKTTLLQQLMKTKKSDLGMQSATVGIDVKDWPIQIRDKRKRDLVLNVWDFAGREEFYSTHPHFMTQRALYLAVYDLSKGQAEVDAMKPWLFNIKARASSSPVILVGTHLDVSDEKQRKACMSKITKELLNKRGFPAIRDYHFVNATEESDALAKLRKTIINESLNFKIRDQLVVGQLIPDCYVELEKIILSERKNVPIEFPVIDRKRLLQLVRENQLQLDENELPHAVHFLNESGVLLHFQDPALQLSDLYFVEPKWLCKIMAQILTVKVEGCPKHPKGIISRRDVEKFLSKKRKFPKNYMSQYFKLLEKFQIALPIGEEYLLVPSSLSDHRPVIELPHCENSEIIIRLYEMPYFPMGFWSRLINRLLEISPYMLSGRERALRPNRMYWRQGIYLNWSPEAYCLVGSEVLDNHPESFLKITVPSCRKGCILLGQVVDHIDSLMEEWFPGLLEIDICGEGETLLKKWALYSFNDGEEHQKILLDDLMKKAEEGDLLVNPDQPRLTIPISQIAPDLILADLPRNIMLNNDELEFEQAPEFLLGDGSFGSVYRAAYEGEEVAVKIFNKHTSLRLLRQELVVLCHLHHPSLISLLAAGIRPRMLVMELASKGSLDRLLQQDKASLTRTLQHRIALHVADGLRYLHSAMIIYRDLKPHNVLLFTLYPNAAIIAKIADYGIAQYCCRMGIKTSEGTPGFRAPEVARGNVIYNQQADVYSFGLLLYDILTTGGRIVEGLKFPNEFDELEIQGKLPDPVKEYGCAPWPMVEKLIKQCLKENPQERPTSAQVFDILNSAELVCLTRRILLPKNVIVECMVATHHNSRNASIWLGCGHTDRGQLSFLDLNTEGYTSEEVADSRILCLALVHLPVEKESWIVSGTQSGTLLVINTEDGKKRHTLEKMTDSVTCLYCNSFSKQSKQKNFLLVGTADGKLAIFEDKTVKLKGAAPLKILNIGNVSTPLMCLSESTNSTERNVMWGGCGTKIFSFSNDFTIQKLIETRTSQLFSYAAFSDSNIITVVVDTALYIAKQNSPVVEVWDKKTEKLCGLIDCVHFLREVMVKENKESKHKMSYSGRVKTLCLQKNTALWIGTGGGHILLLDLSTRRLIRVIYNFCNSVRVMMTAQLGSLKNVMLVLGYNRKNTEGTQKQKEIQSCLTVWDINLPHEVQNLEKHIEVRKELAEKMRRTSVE

Cc1ccc(C(=O)Nc2ccc(CN3CCN(C)CC3)c(C(F)(F)F)c2)cc1C#Cc1cnc2[nH]ncc2c1 [GZD-824]
cryo-EM structure at 3.6 Å; also ADP-Glo kinase inhibition (RCKWm) [1]: GZD-824 and ponatinib are analogous compounds and bind to LRRK2 in a similar manner

COc1cc(C(=O)N2CCC(N3CCN(C)CC3)CC2)ccc1Nc1ncc2c(n1)N(C)c1ccccc1C(=O)N2C [LRRK2-IN-1]
cryo-EM structure at 3.5 Å; also ADP-Glo kinase inhibition [2]: 8U7H (LRRK2^RCKWm–GNE-7915) and 8FO7 (LRRK2^RCKWm–LRRK2-IN-1)

CNC(=O)c1cc(Oc2ccc(NC(=O)Nc3cc(C(C)(C)C)nn3-c3ccc4ncccc4c3)c(F)c2)ccn1 [rebastinib]
cryo-EM structure at 3.7 Å; also ADP-Glo kinase inhibition (RCKWm) [3]: 8U8B (LRRK2–rebastinib), 8U8A (LRRK2–ponatinib), 8U7L (LRRK2–GZD-824)

Source: publication PMC10805800 (Cell Discovery, 2024)
